{
  "source": "PubChem BioAssay AID1745844",
  "about": "(Carcinogenic Potency Database (CPDB), 2022)",
  "test_system": "rodent lifetime carcinogenesis bioassay, tumor incidence TD50",
  "assay": "chronic cancer bioassays in animals – CPDB, compiled studies (AID 1745844)",
  "settings": "rat, strain Fischer 344, by gavage",
  "data": [
    {"smiles": "ClCC(Cl)CCl", "values": [
      {"measurement": "TD50", "setting": "females, site: mammary gland, lesion: fibroadenoma, dosed 91 weeks, study length 105 weeks", "result": 3.42, "unit": "mg/kg/day"},
      {"measurement": "TD50", "setting": "females, site: palate + pharynx + tongue, lesion: squamous-cell papilloma + squamous-cell carcinoma, dosed 91 weeks, study length 105 weeks", "result": 2.93, "unit": "mg/kg/day"},
      {"measurement": "TD50", "setting": "females, site: palate + pharynx, lesion: squamous-cell carcinoma, dosed 91 weeks, study length 105 weeks", "result": 8.87, "unit": "mg/kg/day"},
      {"measurement": "TD50", "setting": "females, site: palate + tongue, lesion: squamous-cell papilloma, dosed 91 weeks, study length 105 weeks", "result": 5.98, "unit": "mg/kg/day"},
      {"measurement": "TD50", "setting": "females, site: palate, lesion: squamous-cell papilloma, dosed 91 weeks, study length 105 weeks", "result": 18.5, "unit": "mg/kg/day"},
      {"measurement": "TD50", "setting": "females, site: pharynx + tongue, lesion: squamous-cell carcinoma, dosed 91 weeks, study length 105 weeks", "result": 5.12, "unit": "mg/kg/day"},
      {"measurement": "TD50", "setting": "females, site: thyroid gland, lesion: follicular-cell adenoma + follicular-cell carcinoma, dosed 91 weeks, study length 105 weeks", "result": 25.2, "unit": "mg/kg/day"},
      {"measurement": "TD50", "setting": "females, site: thyroid gland, lesion: follicular-cell adenoma, dosed 91 weeks, study length 105 weeks", "result": 36.9, "unit": "mg/kg/day"},
      {"measurement": "TD50", "setting": "females, site: tongue, lesion: squamous-cell carcinoma + squamous-cell papilloma, dosed 91 weeks, study length 105 weeks", "result": 4.7, "unit": "mg/kg/day"},
      {"measurement": "TD50", "setting": "females, site: tongue, lesion: squamous-cell carcinoma, dosed 91 weeks, study length 105 weeks", "result": 10.1, "unit": "mg/kg/day"},
      {"measurement": "TD50", "setting": "females, site: tongue, lesion: squamous-cell papilloma, dosed 91 weeks, study length 105 weeks", "result": 9.61, "unit": "mg/kg/day"},
      {"measurement": "TD50", "setting": "males, site: Zymbal's gland, lesion: carcinoma, dosed 94 weeks, study length 104 weeks", "result": 297, "unit": "mg/kg/day"},
      {"measurement": "TD50", "setting": "males, site: adrenal medulla, lesion: pheochromocytoma benign, bilateral + pheochromocytoma, benign, dosed 94 weeks, study length 104 weeks", "result": 12.4, "unit": "mg/kg/day"},
      {"measurement": "TD50", "setting": "males, site: adrenal medulla, lesion: pheochromocytoma benign, bilateral + pheochromocytoma, complex + pheochromocytoma, malignant + pheochromocytoma, benign, dosed 94 weeks, study length 104 weeks", "result": 11.4, "unit": "mg/kg/day"},
      {"measurement": "TD50", "setting": "males, site: all sites, lesion: mononuclear-cell leukemia, dosed 94 weeks, study length 104 weeks", "result": 11.9, "unit": "mg/kg/day"},
      {"measurement": "TD50", "setting": "males, site: any site (literature study), lesion: several types, types named in the paper, dosed 94 weeks, study length 104 weeks", "result": 1.36, "unit": "mg/kg/day"},
      {"measurement": "TD50", "setting": "males, site: colon + jejunum + rectum, lesion: adenocarcinoma + adenomatous polyp, dosed 94 weeks, study length 104 weeks", "result": 73.4, "unit": "mg/kg/day"},
      {"measurement": "TD50", "setting": "males, site: colon + jejunum, lesion: adenocarcinoma, dosed 94 weeks, study length 104 weeks", "result": 102, "unit": "mg/kg/day"},
      {"measurement": "TD50", "setting": "males, site: colon + rectum, lesion: adenomatous polyp, dosed 94 weeks, study length 104 weeks", "result": 264, "unit": "mg/kg/day"},
      {"measurement": "TD50", "setting": "males, site: forestomach + kidney + palate + pancreas + preputial gland + tongue + Zymbal's gland, lesion: squamous-cell carcinoma + squamous-cell papilloma + tubule adenoma + adenoma + acinar-cell adenoma + acinar-cell adenocarcinoma + ca, dosed 94 weeks, study length 104 weeks", "result": 1.1, "unit": "mg/kg/day"},
      {"measurement": "TD50", "setting": "males, site: forestomach, lesion: squamous-cell carcinoma + squamous-cell papilloma, dosed 94 weeks, study length 104 weeks", "result": 1.15, "unit": "mg/kg/day"},
      {"measurement": "TD50", "setting": "males, site: forestomach, lesion: squamous-cell carcinoma, dosed 94 weeks, study length 104 weeks", "result": 3, "unit": "mg/kg/day"},
      {"measurement": "TD50", "setting": "males, site: forestomach, lesion: squamous-cell papilloma, dosed 94 weeks, study length 104 weeks", "result": 1.53, "unit": "mg/kg/day"},
      {"measurement": "TD50", "setting": "males, site: kidney, lesion: tubule adenoma, dosed 94 weeks, study length 104 weeks", "result": 4.44, "unit": "mg/kg/day"},
      {"measurement": "TD50", "setting": "males, site: liver, lesion: hepatocellular adenoma + hepatoblastoma + hepatocellular carcinoma, dosed 94 weeks, study length 104 weeks", "result": 23, "unit": "mg/kg/day"},
      {"measurement": "TD50", "setting": "males, site: liver, lesion: hepatocellular adenoma + hepatocellular carcinoma, dosed 94 weeks, study length 104 weeks", "result": 23, "unit": "mg/kg/day"},
      {"measurement": "TD50", "setting": "males, site: liver, lesion: hepatocellular adenoma, dosed 94 weeks, study length 104 weeks", "result": 31.7, "unit": "mg/kg/day"},
      {"measurement": "TD50", "setting": "males, site: palate + tongue, lesion: squamous-cell carcinoma + squamous-cell papilloma, dosed 94 weeks, study length 104 weeks", "result": 4.48, "unit": "mg/kg/day"},
      {"measurement": "TD50", "setting": "males, site: palate + tongue, lesion: squamous-cell carcinoma, dosed 94 weeks, study length 104 weeks", "result": 8.65, "unit": "mg/kg/day"},
      {"measurement": "TD50", "setting": "males, site: palate + tongue, lesion: squamous-cell papilloma, dosed 94 weeks, study length 104 weeks", "result": 8.16, "unit": "mg/kg/day"},
      {"measurement": "TD50", "setting": "males, site: palate, lesion: squamous-cell carcinoma, dosed 94 weeks, study length 104 weeks", "result": 11.7, "unit": "mg/kg/day"},
      {"measurement": "TD50", "setting": "males, site: palate, lesion: squamous-cell papilloma, dosed 94 weeks, study length 104 weeks", "result": 36.6, "unit": "mg/kg/day"},
      {"measurement": "TD50", "setting": "males, site: pancreas, lesion: acinar-cell adenocarcinoma, dosed 94 weeks, study length 104 weeks", "result": 51.5, "unit": "mg/kg/day"},
      {"measurement": "TD50", "setting": "males, site: pancreas, lesion: adenoma + acinar-cell adenoma + acinar-cell adenocarcinoma, dosed 94 weeks, study length 104 weeks", "result": 1.65, "unit": "mg/kg/day"},
      {"measurement": "TD50", "setting": "males, site: pancreas, lesion: adenoma + acinar-cell adenoma, dosed 94 weeks, study length 104 weeks", "result": 1.65, "unit": "mg/kg/day"},
      {"measurement": "TD50", "setting": "males, site: preputial gland, lesion: adenoma + carcinoma, dosed 94 weeks, study length 104 weeks", "result": 9.59, "unit": "mg/kg/day"},
      {"measurement": "TD50", "setting": "males, site: preputial gland, lesion: adenoma, dosed 94 weeks, study length 104 weeks", "result": 14, "unit": "mg/kg/day"},
      {"measurement": "TD50", "setting": "males, site: preputial gland, lesion: carcinoma, dosed 94 weeks, study length 104 weeks", "result": 28, "unit": "mg/kg/day"},
      {"measurement": "TD50", "setting": "males, site: skin, lesion: basal-cell carcinoma + keratoacanthoma + squamous-cell carcinoma + squamous-cell papilloma + trichoepithelioma, dosed 94 weeks, study length 104 weeks", "result": 20.8, "unit": "mg/kg/day"},
      {"measurement": "TD50", "setting": "males, site: skin, lesion: squamous-cell carcinoma + squamous-cell papilloma, dosed 94 weeks, study length 104 weeks", "result": 39.6, "unit": "mg/kg/day"},
      {"measurement": "TD50", "setting": "males, site: skin, lesion: squamous-cell papilloma, dosed 94 weeks, study length 104 weeks", "result": 51, "unit": "mg/kg/day"},
      {"measurement": "TD50", "setting": "males, site: subcutaneous tissue, lesion: fibroma + sarcoma, dosed 94 weeks, study length 104 weeks", "result": 19.6, "unit": "mg/kg/day"},
      {"measurement": "TD50", "setting": "males, site: subcutaneous tissue, lesion: fibroma, dosed 94 weeks, study length 104 weeks", "result": 20.2, "unit": "mg/kg/day"},
      {"measurement": "TD50", "setting": "males, site: testis, lesion: interstitial-cell adenoma, bilateral + interstitial-cell adenoma, dosed 94 weeks, study length 104 weeks", "result": 1.35, "unit": "mg/kg/day"},
      {"measurement": "TD50", "setting": "males, site: thyroid gland, lesion: c-cell adenoma + c-cell carcinoma, dosed 94 weeks, study length 104 weeks", "result": 8.15, "unit": "mg/kg/day"},
      {"measurement": "TD50", "setting": "males, site: thyroid gland, lesion: c-cell adenoma, dosed 94 weeks, study length 104 weeks", "result": 10.3, "unit": "mg/kg/day"},
      {"measurement": "TD50", "setting": "males, site: thyroid gland, lesion: follicular-cell adenoma + follicular-cell carcinoma, dosed 94 weeks, study length 104 weeks", "result": 35.2, "unit": "mg/kg/day"},
      {"measurement": "TD50", "setting": "males, site: tongue, lesion: squamous-cell carcinoma + squamous-cell papilloma, dosed 94 weeks, study length 104 weeks", "result": 7.86, "unit": "mg/kg/day"},
      {"measurement": "TD50", "setting": "males, site: tongue, lesion: squamous-cell carcinoma, dosed 94 weeks, study length 104 weeks", "result": 34.7, "unit": "mg/kg/day"},
      {"measurement": "TD50", "setting": "males, site: tongue, lesion: squamous-cell papilloma, dosed 94 weeks, study length 104 weeks", "result": 10.2, "unit": "mg/kg/day"}
    ]}
  ]
}
